The values that follow come from patent US8664405B2, “Sulfonic acid salt compound of 4-carbamoyl-5-hydroxy-imidazole derivative” (Fujifilm Corporation, priority 2007, dated 2014).

Data set [1] is described as follows: Evaluation of the storage stability in crystalline state by visual observation. It counts as physicochemical. As to conditions: autoclave at 120° C. under a saturated vapor of water for 30 minutes. How it is done:
(Evaluation 1) Evaluation of the Storage Stability in Crystalline State by Visual Observation
SM-108 [2] obtained in Example 1 and benzensulfonic acid salt of SM-108 [5] obtained in Example 2 were placed in an autoclave at 120° C. under a saturated vapor of water for 30 minutes.

A short description of data set [2]: Storage stability (general statements). It is filed as physicochemical. The conditions noted are these: solid; no test conditions given.
For data set [3] the following is noted: clinical trial by Sumitomo Pharmaceuticals in 1980s; cited from earlier work.
A short description of data set [4]: Evaluation of the storage stability in an aqueous solution (UV-Vis spectra). It is filed as physicochemical. As to conditions: dilute aqueous solution, room temperature, after 60 days. How it is done: (Evaluation 2) Evaluation of the Storage Stability in an Aqueous Solution
SM-108 obtained in Example 1 and hydrochloric acid salt of SM-108 obtained in Example 3 were dissolved into water to dilute aqueous solutions. UV-Vis spectra of those solutions were recorded just after making solutions and after leaving at room temperature for 60 days.

With `NC(=O)c1nc[nH]c1O` [SM-108, 4-Carbamoyl-5-hydroxyimidazole], the “colour of the crystalline substance after treatment (visual observation)” value in data set [1] was “turned indigo-blue”. For the same molecule, the storage stability entry in data set [2] is reported as “poor storage stability”. Further, the “clinical effect against MDS and CML” value in data set [3] was “excellent effects”. The “change of UV-Vis absorption spectrum of aqueous solution” value in data set [4] is recorded as “a broad absorption appeared in the visible-light region”.

Regarding `NC(=O)c1nc[nH]c1O.O=S(=O)(O)c1ccccc1` [benzensulfonic acid salt of SM-108 [5], benzenesulfonic acid salt of SM-108], the “colour of the crystalline substance after treatment (visual observation)” value in data set [1] is recorded as “remained colorless”.

As to `Cl.NC(=O)c1nc[nH]c1O` [hydrochloric acid salt of SM-108], in data set [4], the “change of UV-Vis absorption spectrum of aqueous solution” value is recorded as “did not change at all” and the “colour of aqueous solution” value is “remained colorless”.
